Reference: US20180118718A1, “Substituted Quinoxaline Derivatives” (Selvita S.A., priority 2015, published 2018)

Biological target: T1, Human recombinant His-tagged PFKFB3 (Homo sapiens, UniProt Q16875)
T1 construct: His; made in house
Experiment: PFKFB3 IC50 Determination Assay (in vitro kinase assay, modified ADP-Glo system)
Type: biochemical
Details: ATP 20 μM and fructose-6-phosphate 2 μM (Km), 25 nM PFKFB3, 2 h, rt, ADP-Glo luminescence
Protocol: PFKFB3 IC50 Determination Assay
In vitro kinase assay used to determine IC50 values for tested inhibitors is based on a modified ADP-Glo™ system (Promega) and consists of two parts:
1. Kinase reaction—performed in optimized conditions. At this step PFKFB3 phosphorylates its substrate Fructose-6-phosphate using ATP as a source of phosphate to produce Fructose-2,6-bisphosphate and ADP. Reaction is performed at Km values for ATP and substrate using optimized buffer composition and time of the reaction. Human recombinant His-tagged PFKFB3 (PFKFB3 BATCH II SEC) with confirmed activity is produced and purified in-house. 2. Detection of ADP as a product of the reaction using ADP-Glo™ system. This part is conducted by using the commercially available kit ADP-Glo™ Kinase Assay (Promega, cat. No# V9103) according to manufacturer's instruction, modified by 5x dilutions of assay reagents (both ADP-Glo™ Reagent and Kinase Detection Solution).
Test compounds are dissolved in DMSO and then transferred to the V-bottom 96-well plate.
15 μL per well of Mix 1 is transferred to assay wells of 96-well white plate. […] Total reaction volume is 30 μL per well. Samples are tested in duplicates. Final concentration of DMSO in the reaction is 6.7%. Conditions needed for performing PFKFB3 (PFKFB3 BATCH II SEC) in vitro kinase assay are given below:
This protocol is based on Technical Bulletin, ADP-Glo™ Kinase Assay (Promega) and is adapted to 96-well plate containing 30 μL reaction mixture:
30 μL of 5x diluted ADP-Glo™ Reagent is added to each well of 96-well plate containing 30 μL of reaction mixture. The plate is incubated for 90 minutes on a shaker at RT. 60 μL of 5x diluted Kinase Detection Solution is added to each well of 96-well plate containing 60 μL of the solution (ratio of kinase reaction volume to ADP-Glo™ Reagent volume to Kinase Detection Solution volume is maintained at 1:1:2). Plate is incubated for 40 minutes on a shaker at RT, protected from light. Luminescence is measured in the plate reader Synergy 2 (BioTek).
Luminescent readouts for compounds tested in 10 concentrations (routinely from 100 μM to […], […] serial dilutions) in duplicates, as well as for positive control, are first normalized to no-substrate negative control by its subtraction. In the next step, % of normalized positive control is calculated for each data point and plotted against test compound concentration:
% of control percent of positive control normalized to no-substrate negative control Lumcpd luminescence of test compound Lumneg luminescence of no-substrate negative control Lumpos luminescence of positive control
IC50 parameter is determined by the GraphPad Prism 5.0 software [log(inhibitor) vs. response −Variable slope (four parameters)].

T1 sequence (Q16875 whole entry): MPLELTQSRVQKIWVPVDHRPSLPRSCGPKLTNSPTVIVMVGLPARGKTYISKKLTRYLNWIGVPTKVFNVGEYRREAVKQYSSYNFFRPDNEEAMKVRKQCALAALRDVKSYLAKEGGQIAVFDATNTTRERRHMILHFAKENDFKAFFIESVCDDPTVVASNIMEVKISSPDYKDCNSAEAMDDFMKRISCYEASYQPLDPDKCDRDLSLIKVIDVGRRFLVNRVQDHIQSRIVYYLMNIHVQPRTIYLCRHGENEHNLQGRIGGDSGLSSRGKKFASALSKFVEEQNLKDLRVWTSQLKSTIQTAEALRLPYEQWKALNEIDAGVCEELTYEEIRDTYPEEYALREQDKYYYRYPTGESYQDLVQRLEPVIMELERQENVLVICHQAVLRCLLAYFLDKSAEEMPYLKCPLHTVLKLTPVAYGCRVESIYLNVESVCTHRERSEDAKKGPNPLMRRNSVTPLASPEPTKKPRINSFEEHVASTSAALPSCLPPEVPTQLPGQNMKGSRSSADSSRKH

Structure (SMILES)	IC50 [nM]
Cn1ccc2ccc(-c3cc(Nc4cc(C(=O)NN)ccc4S(C)(=O)=O)cc4nccnc34)cc21 [Example 119, 4-Methanesulfonyl-3-{[8-(1-methyl-1H-indol-6-yl)quinoxalin-6-yl]amino}benzohydrazide]	1 to 1000
CN(c1cc(-c2ccc3ccn(C)c3c2)c2nccnc2c1)c1cnccc1C(=O)Nc1cncnc1 [Example 125, 3-{Methyl[8-(1-methyl-1H-indol-6-yl)quinoxalin-6-yl]amino}-N-(pyrimidin-5-yl)pyridine-4-carboxamide]	1000 to 10000
Cn1ccc2ccc(-c3cc(Nc4cnccc4C(=O)NC4CCCCC4)cc4nccnc34)cc21 [Example 126, N-Cyclohexyl-3-{[8-(1-methyl-1H-indol-6-yl)quinoxalin-6-yl]amino}pyridine-4-carboxamide]	1000 to 10000
Cc1ccc(C(N)=O)c(-c2cc(Nc3cnccc3S(C)(=O)=O)cc3nccnc23)c1 [Example 128, 2-{7-[(4-methanesulfonylpyridin-3-yl)amino]quinoxalin-5-yl}-4-methylbenzamide]	10000 to 100000
CCOc1cccc(-c2cc(Nc3cnccc3S(C)(=O)=O)cc3nccnc23)c1 [Example 129, 8-(3-Ethoxyphenyl)-N-(4-methanesulfonylpyridin-3-yl)quinoxalin-6-amine]	10000 to 100000
CC(C)Oc1cccc(-c2cc(Nc3cnccc3S(C)(=O)=O)cc3nccnc23)c1 [Example 130, N-(4-Methanesulfonylpyridin-3-yl)-8-[3-(propan-2-yloxy)phenyl]quinoxalin-6-amine]	10000 to 100000
CC(=O)N1CCOCC1CNC(=O)c1ccncc1Nc1cc(-c2ccc3ccn(C)c3c2)c2nccnc2c1 (centres unmarked) [Example 136, N-[(4-acetylmorpholin-3-yl)methyl]-3-{[8-(1-methyl-1H-indol-6-yl)quinoxalin-6-yl]amino}pyridine-4-carboxamide]	1 to 1000
CN1CCOC(CNC(=O)c2ccncc2Nc2cc(-c3ccc4ccn(C)c4c3)c3nccnc3c2)C1 (centres unmarked) [Example 137, 3-{[8-(1-methyl-1H-indol-6-yl)quinoxalin-6-yl]amino}-N-[(4-methylmorpholin-2-yl)methyl]pyridine-4-carboxamide]	1 to 1000
Cn1cncc1CNC(=O)c1ccncc1Nc1cc(-c2ccc3ccn(C)c3c2)c2nccnc2c1 [Example 143, N-[(1-methyl-1H-imidazol-5-yl)methyl]-3-{[8-(1-methyl-1H-indol-6-yl)quinoxalin-6-yl]amino}pyridine-4-carboxamide]	1 to 1000
Cn1ccc2ccc(-c3cc(Nc4cnccc4C(=O)NCc4cccnn4)cc4nccnc34)cc21 [Example 144, 3-{[8-(1-Methyl-1H-indol-6-yl)quinoxalin-6-yl]amino}-N-[(pyridazin-3-yl)methyl]pyridine-4-carboxamide]	1 to 1000
Cn1ccc2ccc(-c3cc(Nc4ccncc4C#N)cc4nccnc34)cc21 [Example 145, 4-{[8-(1-Methyl-1H-indol-6-yl)quinoxalin-6-yl]amino}pyridine-3-carbonitrile]	1000 to 10000
N#Cc1cnccc1Nc1cc(Cl)c2nccnc2c1 [Example 146, 4-[(8-chloroquinoxalin-6-yl)amino]pyridine-3-carbonitrile]	10000 to 100000
Cn1ccc2ccc(-c3cc(Nc4cncnc4C(N)=O)cc4nccnc34)cc21 [Example 149, 5-{[8-(1-methyl-1H-indol-6-yl)quinoxalin-6-yl]amino}pyrimidine-4-carboxamide]	1 to 1000
Cc1csc2ccc(-c3cc(Nc4cnccc4C#N)cc4nccnc34)cc12 [Example 150, 3-{[8-(3-Methyl-1-benzothiophen-5-yl)quinoxalin-6-yl]amino}pyridine-4-carbonitrile]	1 to 1000
COc1ccc(C)c(-c2cc(Nc3cnccc3S(C)(=O)=O)cc3nccnc23)c1 [Example 153, N-(4-Methanesulfonylpyridin-3-yl)-8-(5-methoxy-2-methylphenyl)quinoxalin-6-amine]	1000 to 10000
Cn1ccc2ccc(-c3cc(Nc4cnccc4C(=O)Oc4ccnc(N)n4)cc4nccnc34)cc21 [Example 160, 2-Aminopyrimidin-4-yl3-{[8-(1-methyl-1H-indol-6-yl)quinoxalin-6-yl]amino}pyridine-4-carboxylate]	1 to 1000

Structure (SMILES)	IC50 [nM]
CS(=O)(=O)c1ccncc1Nc1cc(-c2ccc3sncc3c2)c2nccnc2c1 [Example 161, 8-(1,2-Benzothiazol-5-yl)-N-(4-methanesulfonylpyridin-3-yl)quinoxalin-6-amine]	1000 to 10000
CS(=O)(=O)c1ccncc1Nc1cc(-c2ccc(NC(=O)C3CCCN3)cc2)c2nccnc2c1 (centres unmarked) [Example 164, N-(4-{7-[(4-methanesulfonylpyridin-3-yl)amino]quinoxalin-5-yl}phenyl)pyrrolidine-2-carboxamide]	10000 to 100000
CS(=O)(=O)c1ccncc1Nc1cc(-c2cccc(NC(=O)C3CCCN3)c2)c2nccnc2c1 (centres unmarked) [Example 165, N-(3-{7-[(4-Methanesulfonylpyridin-3-yl)amino]quinoxalin-5-yl}phenyl)pyrrolidine-2-carboxamide]	10000 to 100000
Cn1nnc2cc(-c3cc(Nc4cnccc4S(C)(=O)=O)cc4nccnc34)ccc21 [Example 167, N-(4-methanesulfonylpyridin-3-yl)-8-(1-methyl-1H-1,2,3-benzotriazol-5-yl)quinoxalin-6-amine]	10000 to 100000
Cc1nc2cc(-c3cc(Nc4cnccc4S(C)(=O)=O)cc4nccnc34)ccc2s1 [Example 169, N-(4-methanesulfonylpyridin-3-yl)-8-(2-methyl-1,3-benzothiazol-5-yl)quinoxalin-6-amine]	10000 to 100000
Cn1nnc2ccc(-c3cc(Nc4cnccc4S(C)(=O)=O)cc4nccnc34)cc21 [Example 170, N-(4-Methanesulfonylpyridin-3-yl)-8-(1-methyl-1H-1,2,3-benzotriazol-6-yl)quinoxalin-6-amine]	10000 to 100000
CS(=O)(=O)c1ccncc1Nc1cc(-c2ccc3nc(N)sc3c2)c2nccnc2c1 [Example 174, 8-(2-Amino-1,3-benzothiazol-6-yl)-N-(4-methanesulfonylpyridin-3-yl)quinoxalin-6-amine]	1 to 1000
CN(C)Cc1ccncc1Nc1cc(-c2ccc3ccn(C)c3c2)c2nccnc2c1 [Example 175, N-{4-[(dimethylamino)methyl]pyridin-3-yl}-8-(1-methyl-1H-indol-6-yl)quinoxalin-6-amine]	1 to 1000
CN(C)Cc1ccccc1Nc1cc(-c2ccc3ccn(C)c3c2)c2nccnc2c1 [Example 176, N-{2-[(Dimethylamino)methyl]phenyl}-8-(1-methyl-1H-indol-6-yl)quinoxalin-6-amine]	1 to 1000
Cn1ccc2ccc(-c3cc(Nc4ccccc4C(=O)O)cc4nccnc34)cc21 [Example 178, 2-{[8-(1-Methyl-1H-indol-6-yl)quinoxalin-6-yl]amino}benzoic acid]	1 to 1000
Cn1ccc2ccc(-c3cc(Nc4cnccc4C(=O)O)cc4nccnc34)cc21 [Example 179, 3-{[8-(1-Methyl-1H-indol-6-yl)quinoxalin-6-yl]amino}pyridine-4-carboxylic acid]	1 to 1000
CN1CCC(NC(=O)c2ccccc2Nc2cc(-c3ccc4ccn(C)c4c3)c3nccnc3c2)C1 (centres unmarked) [Example 183, 2-{[8-(1-Methyl-1H-indol-6-yl)quinoxalin-6-yl]amino}-N-(1-methylpyrrolidin-3-yl)benzamide]	1 to 1000
CS(=O)(=O)c1ccncc1Nc1cc(-c2ccc(N)c(F)c2)c2nccnc2c1 [Example 186, 8-(4-Amino-3-fluorophenyl)-N-(4-methanesulfonylpyridin-3-yl)quinoxalin-6-amine]	1 to 1000
CS(=O)(=O)c1ccncc1Nc1cc(-c2ccc(F)cc2)c2nccnc2c1 [Example 188, 8-(4-Fluorophenyl)-N-(4-methanesulfonylpyridin-3-yl)quinoxalin-6-amine]	1 to 1000
CS(=O)(=O)c1ccccc1Nc1cc(-c2ccc3sc(N)nc3c2)c2nccnc2c1 [Example 190, 8-(2-Amino-1,3-benzothiazol-5-yl)-N-(2-methanesulfonylphenyl)quinoxalin-6-amine]	1 to 1000
Cc1csc2ccc(-c3cc(Nc4ccccc4S(C)(=O)=O)cc4nccnc34)cc12 [Example 191, N-(2-Methanesulfonylphenyl)-8-(3-methyl-1-benzothiophen-5-yl)quinoxalin-6-amine]	1 to 1000
